Results taken from publication PMC5819902, “Activation loop targeting strategy for design of receptor-interacting protein kinase 2 (RIPK2) inhibitors” (Bioorganic & Medicinal Chemistry Letters, 2018).

Experiments:
Format in all cases: biochemical
[1] = biological target: T1, receptor-interacting protein kinase 2 (RIPK2) (Homo sapiens, UniProt O43353); test: in vitro enzyme inhibition, % inhibition at […]; settings: 0.5 µM
R171C RIPK2 [2] = biological target: T2, R171C RIPK2 (Homo sapiens, UniProt O43353, R171C); test: in vitro enzyme inhibition, % inhibition at […]; settings: 5 µM
T2 sequence (O43353 whole entry R171C): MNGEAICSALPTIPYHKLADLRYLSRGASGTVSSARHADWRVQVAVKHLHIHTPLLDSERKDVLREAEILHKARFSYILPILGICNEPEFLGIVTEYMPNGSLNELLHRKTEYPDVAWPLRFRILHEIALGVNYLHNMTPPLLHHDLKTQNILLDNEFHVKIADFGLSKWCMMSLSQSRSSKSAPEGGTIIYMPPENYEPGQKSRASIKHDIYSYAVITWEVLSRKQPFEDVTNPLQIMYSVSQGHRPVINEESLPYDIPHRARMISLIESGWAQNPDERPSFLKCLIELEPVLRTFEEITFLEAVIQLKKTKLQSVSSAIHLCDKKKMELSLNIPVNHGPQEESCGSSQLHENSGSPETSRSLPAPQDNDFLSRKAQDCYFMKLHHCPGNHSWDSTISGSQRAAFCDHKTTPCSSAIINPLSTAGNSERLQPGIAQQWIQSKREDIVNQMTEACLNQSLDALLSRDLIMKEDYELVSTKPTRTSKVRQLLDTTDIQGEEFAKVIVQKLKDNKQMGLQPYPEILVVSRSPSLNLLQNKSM

[3] = biological target: T1, receptor-interacting protein kinase 2 (RIPK2); test: in vitro enzyme inhibition, % inhibition at […]; settings: 5 µM
[4] = biological target: T1, receptor-interacting protein kinase 2 (RIPK2); test: in vitro RIPK2 enzyme inhibition
R171C RIPK2 [5] = biological target: T2, R171C RIPK2; test: in vitro RIPK2 enzyme inhibition
[6] = biological target: T1, receptor-interacting protein kinase 2 (RIPK2); test: X-ray co-crystal structure ([…] Å); in vitro enzyme inhibition IC50
[7] = biological target: T1, receptor-interacting protein kinase 2 (RIPK2); test: in vitro enzyme inhibition, % inhibition at […]; settings: 1 µM
R171C RIPK2 [8] = biological target: T2, R171C RIPK2; test: in vitro enzyme inhibition, % inhibition at […]; settings: 1 µM

T1 sequence (O43353 whole entry): as the sequence (O43353 whole entry R171C) above, with C171R counted along it

## CNC(=O)c1cc(Oc2ccc(NC(=O)Nc3cccc(CC#N)c3)c(F)c2)ccn1 [CSR25]
[1]
  % Inhibition / RIPK2 WT: 43

## CNC(=O)c1cc(Oc2ccc(NC(=O)Nc3cccc(C(C)(C)C(=O)O)c3)c(F)c2)ccn1 [CSR29]
R171C RIPK2 [2]
  % Inhibition / R171C RIPK2: 67

## CNC(=O)c1cc(Oc2ccc(NC(=O)Nc3cccc(CC(=O)OC)c3)c(F)c2)ccn1 [CSR30]
R171C RIPK2 [2]
  % Inhibition / R171C RIPK2: 76
[3]
  % Inhibition / RIPK2 WT: 69

## O=C(O)CSc1ccc(NC(=O)Nc2ccccc2F)cc1F [CSR35F2]
[4]
  IC50: 13.2 ± 1.7 µM

## CNC(=O)c1cc(Oc2ccc(NC(=O)Nc3ccc(SCC(=O)O)c(F)c3)c(F)c2)ccn1 [CSR35]
R171C RIPK2 [5]
  IC50: 4.87 ± 0.96 µM
[6]
  IC50: 2.26 ± 0.11 µM

## CNC(=O)c1cc(Oc2ccc(NC(=O)Nc3ccc(SCC(=O)OC)c(F)c3)c(F)c2)ccn1 [CSR36]
[7]
  % Inhibition / RIPK2 WT: 94
R171C RIPK2 [8]
  % Inhibition / R171C RIPK2: 92
